Experimental data as given in patent US20020115642A1, “Beta-lactam antibiotics” (priority 2000, published 2002).
Converted amounts (≈) assume the structure as drawn. Read-outs that look alike come from different tables or passages of the source.

Key:
Test in all cases: Susceptibility testing (MIC, modified NCCLS method)
[1] = system: E. coli N; assay type: cell-based, Escherichia coli; details: E. coli (N)
Protocol: (§1) The NCCLS (National Committee for Clinical Laboratory Standards) method to determine MIC's of antimicrobial compounds was modified for high-throughput screening. All stocks of tested compounds were prepared in either water or in dimethylsulfoxide (DMSO), depending on the solubility. […] Briefly 20 2-fold serial dilutions of testing compounds from the highest concentration were made in a 384-well microtiter plate. Each well was inoculated with testing bacteria in broth to a final concentration of approximately 1-1.5×10^6 cells/ml. Bacterial growth was determined by the increase of optical density at 600 nm using a microplate reader (Tecan SpectraFluor Plus).

[2] = system: E. coli/TEM-1; assay type: cell-based, Escherichia coli
Protocol: as §1

[3] = system: Staphylococcus aureus; assay type: cell-based
Protocol: as §1

[4] = system: E. faecalis; assay type: cell-based, Enterococcus faecalis
Protocol: as §1

[5] = system: E. cloacae; assay type: cell-based, Enterobacter cloacae; details: E. cloacae ATCC 23355
Protocol: as §1

[6] = system: E. aerogenes; assay type: cell-based, Enterobacter aerogenes; details: E. aerogenes ATCC 35028
Protocol: as §1

[7] = system: K. pneumoniae; assay type: cell-based, Klebsiella pneumoniae
Protocol: as §1

[8] = system: P. aeruginosa; assay type: cell-based, Pseudomonas aeruginosa
Protocol: as §1

[9] = system: S. epidermidis; assay type: cell-based, Staphylococcus epidermidis; details: Staphylococcus epidermidis, S. epidermidis (5); read-out: GM* MIC (geometric mean)
Protocol: as §1

[10] = Escherichia coli, read-out: MIC
[11] = Staphylococcus aureus, ATCC11632, S. aureus ATCC 11632, read-out: MIC
[12] = Staphylococcus aureus, ATCC33594, S. aureus ATCC 33594, read-out: MIC
[13] = Staphylococcus aureus, ATCC700260, S. aureus ATCC 700260, read-out: MIC
[14] = Staphylococcus aureus, ATCC700699, S. aureus ATCC 700699, read-out: MIC
[15] = Enterococcus faecalis, ATCC49757, E. faecalis ATCC 49757, read-out: MIC
[16] = Enterococcus faecalis, ATCC700802, E. faecalis ATCC 700802, read-out: MIC
[17] = Enterobacter cloacae, ATCC23355, read-out: MIC
[18] = Klebsiella aerogenes, ATCC35028, read-out: MIC
[19] = Klebsiella pneumoniae, ATCC51503, K. pneumoniae ATCC 51503, read-out: MIC
[20] = Klebsiella pneumoniae, ATCC700721, K. pneumoniae ATCC 700721, read-out: MIC
[21] = Pseudomonas aeruginosa, ATCC21726, P. aeruginosa ATCC 21726, read-out: MIC
[22] = Pseudomonas aeruginosa, ATCC29872, P. aeruginosa ATCC 29872, read-out: MIC

## O=C(Cc1cnc[nH]1)NC1C(=O)N2C(C(=O)O)=C(COc3cc(Cl)ccc3Oc3ccc(Cl)cc3Cl)CS[C@H]12 (stereo partly shown) [Compound 31, 3-(2-(2,4-Dichlorophenoxy)-5-chlorophenoxy)methyl-7-[2-(3H-imidazol-4-yl)]-acetamido-3-cephem-4-carboxylic acid]
[1]
  MIC: 0.25 µg/mL (≈ 0.41 µM)
[2]; E. coli/Tem-1
  MIC: 0.063 µg/mL (≈ 0.103 µM)
[3]; S. aureus ATCC 11632
  MIC: 16 µg/mL (≈ 26.2 µM)
[3]; S. aureus ATCC 33591
  MIC: 16 µg/mL (≈ 26.2 µM)
[3]; S. aureus ATCC 33594
  MIC: 0.063 µg/mL (≈ 0.103 µM)
[3]; S. aureus ATCC 700260
  MIC: 32 µg/mL (≈ 52.5 µM)
[3]; S. aureus ATCC 700699
  MIC: 32 µg/mL (≈ 52.5 µM)
[4]; E. faecalis ATCC 49757
  MIC: 32 µg/mL (≈ 52.5 µM)
[4]; E. faecalis ATCC 700802
  MIC: >32 µg/mL
[5]
  MIC: 16 µg/mL (≈ 26.2 µM)
[6]
  MIC: 16 µg/mL (≈ 26.2 µM)
[7]; K. pneumoniae ATCC 51503
  MIC: 32 µg/mL (≈ 52.5 µM)
[7]; K. pneumoniae ATCC 700721
  MIC: 0.5 µg/mL (≈ 0.82 µM)
[8]; P. aeruginosa ATCC 21726
  MIC: >32 µg/mL
[8]; P. aeruginosa ATCC 29872
  MIC: >32 µg/mL

## O=C(Cn1cnnn1)Nc1ncc(CC(=O)NC2C(=O)N3C(C(=O)O)=C(COc4cc(Cl)ccc4Oc4ccc(Cl)cc4Cl)CS[C@H]23)s1 (stereo partly shown) [Compound 43]
[1]
  MIC: 2 µg/mL (≈ 2.66 µM)
[2]; E. coli/Tem-1
  MIC: 0.25 µg/mL (≈ 0.332 µM)
[3]; S. aureus ATCC 11632
  MIC: 32 µg/mL (≈ 42.6 µM)
[3]; S. aureus ATCC 33591
  MIC: 0.125 µg/mL (≈ 0.166 µM)
[3]; S. aureus ATCC 33594
  MIC: 0.063 µg/mL (≈ 0.0838 µM)
[3]; S. aureus ATCC 700260
  MIC: 8 µg/mL (≈ 10.6 µM)
[3]; S. aureus ATCC 700699
  MIC: 32 µg/mL (≈ 42.6 µM)
[4]; E. faecalis ATCC 49757
  MIC: 32 µg/mL (≈ 42.6 µM)
[4]; E. faecalis ATCC 700802
  MIC: 32 µg/mL (≈ 42.6 µM)
[5]
  MIC: 32 µg/mL (≈ 42.6 µM)
[6]
  MIC: 32 µg/mL (≈ 42.6 µM)
[7]; K. pneumoniae ATCC 51503
  MIC: 32 µg/mL (≈ 42.6 µM)
[7]; K. pneumoniae ATCC 700721
  MIC: 4 µg/mL (≈ 5.32 µM)
[8]; P. aeruginosa ATCC 21726
  MIC: >32 µg/mL
[8]; P. aeruginosa ATCC 29872
  MIC: >32 µg/mL

## NC(C(=O)NC1C(=O)N2C(C(=O)O)=C(COc3cc(Cl)ccc3Oc3ccc(Cl)cc3Cl)CSC12)c1ccccc1 (stereo not shown) [Compound 38, 3-(2-(2,4-Dichlorophenoxy)-5-chlorophenoxy)methyl-7-(1-phenyl-2-aminoacetamido)-3-cephem-4-carboxylic acid]
[1]
  MIC: 0.031 µg/mL (≈ 0.0488 µM)
[2]; E. coli/Tem-1
  MIC: 0.015 µg/mL (≈ 0.0236 µM)
[3]; S. aureus ATCC 11632
  MIC: 0.062 µg/mL (≈ 0.0976 µM)
[3]; S. aureus ATCC 33594
  MIC: 0.062 µg/mL (≈ 0.0976 µM)
[3]; S. aureus ATCC 700260
  MIC: 1.5e-05 µg/mL (≈ 2.36e-05 µM)
[3]; S. aureus ATCC 700699
  MIC: 1.5e-05 µg/mL (≈ 2.36e-05 µM)
[4]; E. faecalis ATCC 49757
  MIC: 15.9 µg/mL (≈ 25 µM)
[4]; E. faecalis ATCC 700802
  MIC: 15.9 µg/mL (≈ 25 µM)
[5]
  MIC: 1.98 µg/mL (≈ 3.12 µM)
[6]
  MIC: 1.98 µg/mL (≈ 3.12 µM)
[7]; K. pneumoniae ATCC 51503
  MIC: 1.98 µg/mL (≈ 3.12 µM)
[8]; P. aeruginosa ATCC 21726
  MIC: >15.9 µg/mL
[8]; P. aeruginosa ATCC 29872
  MIC: >15.9 µg/mL

## O=C(COc1ccc(O)cc1)NC1C(=O)N2C(C(=O)O)=C(COc3cc(Cl)ccc3Oc3ccc(Cl)cc3Cl)CS[C@H]12 (stereo partly shown) [Compound 40, 3-(2-(2,4-dichlorophenoxy)-5-chlorophenoxy)methyl-7-[2-(4-hydroxyphenoxy)acetamido]-3-cephem-4-carboxylic acid]
[1]; [10]
  MIC: 0.5 µg/mL (≈ 0.767 µM)
[2]; Escherichia coli
  MIC: 0.063 µg/mL (≈ 0.0966 µM)
[3]; [11]
  MIC: 16 µg/mL (≈ 24.5 µM)
[3]; Staphylococcus aureus, ATCC33591, S. aureus ATCC 33591, read-out: MIC
  MIC: 0.125 µg/mL (≈ 0.192 µM)
[3]; [12]
  MIC: 0.063 µg/mL (≈ 0.0966 µM)
[3]; [13]
  MIC: 4 µg/mL (≈ 6.14 µM)
[3]; [14]
  MIC: 32 µg/mL (≈ 49.1 µM)
[4]; [15]
  MIC: 16 µg/mL (≈ 24.5 µM)
[4]; [16]
  MIC: 16 µg/mL (≈ 24.5 µM)
[5]; [17]
  MIC: 16 µg/mL (≈ 24.5 µM)
[6]; [18]
  MIC: 32 µg/mL (≈ 49.1 µM)
[7]; [19]
  MIC: 16 µg/mL (≈ 24.5 µM)
[7]; [20]
  MIC: 2 µg/mL (≈ 3.07 µM)
[8]; [21]
  MIC: > 32 µg/mL
[8]; [22]
  MIC: > 32 µg/mL

## Cc1onc(-c2ccccc2)c1C(=O)N[C@@H]1C(=O)N2[C@@H]1SC(C)(C)[C@@H]2C(=O)O [Oxacillin, reference compound]
[3]; Staphylococcus aureus, ATCC11632, ATCC 11632, methicillin-sensitive, β-lactamase Neg./Pos., read-out: MIC
  MIC: 0.25 µg/mL (≈ 0.623 µM)
[3]; Staphylococcus aureus, ATCC13301, ATCC 13301, methicillin-sensitive, β-lactamase Positive, read-out: MIC
  MIC: 0.25 µg/mL (≈ 0.623 µM)
[3]; Staphylococcus aureus, ATCC14154, ATCC 14154, methicillin-sensitive, β-lactamase Positive, read-out: MIC
  MIC: 0.5 µg/mL (≈ 1.25 µM)
[3]; Staphylococcus aureus, ATCC33591, ATCC 33591, methicillin-resistant, β-lactamase Positive, read-out: MIC
  MIC: 8 µg/mL (≈ 19.9 µM)
[3]; Staphylococcus aureus, ATCC33592, ATCC 33592, methicillin-sensitive, β-lactamase Positive, read-out: MIC
  MIC: 2 µg/mL (≈ 4.98 µM)
[3]; Staphylococcus aureus, ATCC33593, ATCC 33593, methicillin-resistant, β-lactamase Positive, read-out: MIC
  MIC: 8 µg/mL (≈ 19.9 µM)
[3]; Staphylococcus aureus, ATCC33594, ATCC 33594, methicillin-sensitive, β-lactamase Positive, read-out: MIC
  MIC: 0.25 µg/mL (≈ 0.623 µM)
[3]; Staphylococcus aureus, ATCC43300, ATCC 43300, methicillin-sensitive, β-lactamase Neg./Pos., read-out: MIC
  MIC: 2 µg/mL (≈ 4.98 µM)
[3]; Staphylococcus aureus, ATCC700260, ATCC 700260, methicillin-sensitive, β-lactamase Positive, read-out: MIC
  MIC: 0.5 µg/mL (≈ 1.25 µM)
[3]; Staphylococcus aureus, ATCC700698, ATCC 700698, methicillin-resistant, β-lactamase Negative, read-out: MIC
  MIC: > 32 µg/mL
[3]; Staphylococcus aureus, ATCC700699, ATCC 700699, methicillin-resistant, β-lactamase Negative, read-out: MIC
  MIC: > 32 µg/mL
[3]; Staphylococcus aureus, ATCC700787, ATCC 700787, methicillin-resistant, β-lactamase Positive, read-out: MIC
  MIC: > 32 µg/mL
[3]; Staphylococcus aureus, ATCC700788, ATCC 700788, methicillin-resistant, β-lactamase Positive, read-out: MIC
  MIC: > 32 µg/mL
[3]; Staphylococcus aureus, ATCC700789, ATCC 700789, methicillin-resistant, β-lactamase Positive, read-out: MIC
  MIC: 32 µg/mL (≈ 79.7 µM)
[3]; Staphylococcus aureus, MRSA, MRSA tested (7), read-out: Geometric mean of MIC
  MIC: > 21.5 µg/mL
[3]; Staphylococcus aureus, MSSA, MSSA tested (7), read-out: Geometric mean of MIC
  MIC: 0.55 µg/mL (≈ 1.37 µM)
[3]; Staphylococcus aureus, S. aureus (14), read-out: Geometric mean of MIC
  MIC: > 3.45 µg/mL
[3]; Staphylococcus aureus, S. aureus β-lactamase negative (2), read-out: Geometric mean of MIC
  MIC: > 32 µg/mL
[3]; Staphylococcus aureus, S. aureus β-lactamase positive (12), read-out: Geometric mean of MIC
  MIC: 2.34 µg/mL (≈ 5.83 µM)
[4]; E. faecalis (7)
  MIC range: >11 µg/mL
[4]; Enterococcus faecalis, E. faecalis (7), read-out: GM* MIC (geometric mean)
  MIC: > 11 µg/mL
[9]
  MIC: > 7.87 µg/mL

## O=C(Cc1cccs1)NC1C(=O)N2C(C(=O)O)C(COC(=O)Oc3cc(Cl)ccc3Oc3ccc(Cl)cc3Cl)=CS[C@H]12 (stereo partly shown) [Compound 15, 3-((2-(2,4-Dichlorophenoxy)-5-chlorophenoxy)carbonyloxy)methyl-7-(2-thienylacetamido)-2-cephem-4-carboxylic acid]
[1]; [10]
  MIC: 0.008 µg/mL (≈ 0.0119 µM)
[2]; Escherichia coli
  MIC: 0.0031 µg/mL (≈ 0.00463 µM)
[3]; [11]
  MIC: 0.61 µg/mL (≈ 0.911 µM)
[3]; [12]
  MIC: 0.061 µg/mL (≈ 0.0911 µM)
[3]; [13]
  MIC: 0.061 µg/mL (≈ 0.0911 µM)
[3]; [14]
  MIC: 0.061 µg/mL (≈ 0.0911 µM)
[4]; [15]
  MIC: > 15.7 µg/mL
[4]; [16]
  MIC: 15.7 µg/mL (≈ 23.4 µM)
[5]; [17]
  MIC: 0.25 µg/mL (≈ 0.373 µM)
[6]; [18]
  MIC: 0.98 µg/mL (≈ 1.46 µM)
[7]; [19]
  MIC: 1.96 µg/mL (≈ 2.93 µM)
[7]; [20]
  MIC: 1.96 µg/mL (≈ 2.93 µM)
[8]; [21]
  MIC: > 15.7 µg/mL
[8]; [22]
  MIC: > 15.7 µg/mL
